Experimental data: article PMC10053369, “Recombinant Analogs of Sea Anemone Kunitz-Type Peptides Influence P2X7 Receptor Activity in Neuro-2a Cells” (Marine Drugs, 2023)
Positions of bridges follow the written chain, without caps; N, C: chain ends. No end group written: not given here.

What was measured:
Neuro-2a cells = experiment: Cytoprotection against ATP-induced cell death (MTT assay); format: cell-based, mouse; settings: long-time application of ATP (4 mM, 48 h)
Protocol: (§1) Neuro-2a neuroblastoma cells (ATCC® CCL-131™) were obtained from American Type Culture Collection (Manassas, VA, USA). The cells were cultivated in DMEM medium (BioloT, St. Petersburg, Russia) supplemented with 10% of fetal bovine serum (BioloT, St. Petersburg, Russia) and 1% penicillin/streptomycin (BioloT, St. Petersburg, Russia) at 37 °C and 5% CO2. Initially, cells were incubated in cultural flasks until sub-confluent (~80%). For testing, Neuro-2a cells were seeded in 96-well plates and experiments were started after 24 h.
The cytoprotective effect of peptides was assessed in Neuro-2a cells using the MTT assay. In brief, an aliquot (180μL) of cell suspension with a nominal cell density of 3 × 10^4 cells/well was dispensed into 96-well plates. The cells were incubated for 24 h in a humidified atmosphere containing 5% CO2 to allow cell attachment. At the end of the preincubation period, ATP (Sigma-Aldrich, St. Louis, MO, USA) was added to the cells at a concentration of 4 mM. Studied peptides were added to the cells at concentrations of 0.1, 1.0 or 10.0 μM for 1h prior to the addition of ATP. After incubation for 48 h at 37 °C cell viability was detected using the MTT as described previously. The standard P2X7 inhibitor, A438079 (Sigma-Aldrich, St. Louis, MO, USA), at a concentration of 10 μM was used as a positive control.
(§2) All data were obtained in three independent replicates and calculated values were expressed as mean ± standard error of the mean (SEM). The Student’s t-test was performed using SigmaPlot 14.0 (Systat Software Inc., San Jose, CA, USA) to determine statistical significance.

P2X7 in Neuro-2a cells = experiment: ATP-induced YO-PRO-1 uptake (P2X7 pore formation); format: cell-based, mouse; settings: short-term effect
Protocol: as §1
Neuro-2a cells were seeded in 96 well plates at a density of 4 × 10^4 cells/well and incubated in DMEM for 24 h, 37 °C, 5% CO2. Then the cells were washed once with HBSS and filled with 180 μL of the same buffer. YO-PRO-1 (Sigma-Aldrich, St. Louis, MO, USA, 5 μM final concentration) was loaded into the wells, the cells were incubated for 15 min at 37 °C. Further, the studied peptides were added to the cells at concentrations of 10, 1, 0.1 and 0.01 μM and incubated for 10 min at 37 °C. After that ATP (4 mM final concentration) was added and the plates were incubated for an additional 10 min. The standard P2X7R inhibitor, A438079 (Sigma-Aldrich, St. Louis, MO, USA), was used as inhibitory control. Then the cells were washed three times with the buffer solution and fluorescence intensity was measured with PHERAstar FS plate reader (BMG, LABTECH, Ortenberg, Germany) at λex = 485 nm and λem= 520 nm in the “End Point” mode. The effectiveness of compounds was evaluated relative to control without ATP.
as §2

Question: For “RGICSEPKVVGPCKAGLRRFYYDSETGECKPFIYGGCKGNKNNFETLHACRGICRA (disulfide 4-54, 13-37, 29-50 (inferred)) [HCRG1]”, which “protection from ATP-induced death” value (Neuro-2a cells) is on record?
Answer: Its value is “partially protected neuroblastoma cells from ATP-induced death”.

Question: And the “entry of YO-PRO-1 into cells (summary in discussion)” value (P2X7 in Neuro-2a cells)?
Answer: The value was “regulating the entry of low molecular weight fluorescent dye YO-PRO-1 into cells”.
